This is an account of results in PMC10977697 (PLOS ONE, 2024).

One assay deals with PCSK9ΔCRD (PCSK9dCRD). Format: binding, human. The settings on record: for S/N: ratio of signal for target protein over BSA background; for ELISA: spot phage ELISA signal, DCP displayed on M13 p8. Background: ELISA stands for enzyme-linked immunosorbent assay.
The target in a further assay is T1, Her3-Fc (Homo sapiens, UniProt P21860).
T1 construct: purchased R&D 348-RB
The assay can be described thus: Spot phage ELISA, Her3-Fc. Format: binding. To be noted: for S/N: ratio of signal for target protein over BSA background; for ELISA: spot phage ELISA signal, DCP displayed on M13 p8.

A further assay has as its system HGFA. The assay is described as follows: Spot phage ELISA, HGFA. Type of assay: binding, human. To be noted: for S/N: ratio of signal for target protein over BSA background, S/N > 2 positive; for ELISA: spot phage ELISA signal, DCP displayed on M13 p8, phage supernatant 1:3 in PBT, anti-M13-HRP, TMB.
The test system of a further assay is CD28-Fc. The assay can be described thus: Spot phage ELISA, CD28-Fc. Type of assay: binding. The settings on record: for ELISA: spot phage ELISA signal of phage-displayed DCP clone on CD28-Fc; for S/N: spot phage ELISA signal-to-noise on CD28-Fc.

Bridges are numbered along the chain shown (N, C = ends). Where no end group is shown, it is not given here.

T1 sequence (P21860 20-643 limits assumed): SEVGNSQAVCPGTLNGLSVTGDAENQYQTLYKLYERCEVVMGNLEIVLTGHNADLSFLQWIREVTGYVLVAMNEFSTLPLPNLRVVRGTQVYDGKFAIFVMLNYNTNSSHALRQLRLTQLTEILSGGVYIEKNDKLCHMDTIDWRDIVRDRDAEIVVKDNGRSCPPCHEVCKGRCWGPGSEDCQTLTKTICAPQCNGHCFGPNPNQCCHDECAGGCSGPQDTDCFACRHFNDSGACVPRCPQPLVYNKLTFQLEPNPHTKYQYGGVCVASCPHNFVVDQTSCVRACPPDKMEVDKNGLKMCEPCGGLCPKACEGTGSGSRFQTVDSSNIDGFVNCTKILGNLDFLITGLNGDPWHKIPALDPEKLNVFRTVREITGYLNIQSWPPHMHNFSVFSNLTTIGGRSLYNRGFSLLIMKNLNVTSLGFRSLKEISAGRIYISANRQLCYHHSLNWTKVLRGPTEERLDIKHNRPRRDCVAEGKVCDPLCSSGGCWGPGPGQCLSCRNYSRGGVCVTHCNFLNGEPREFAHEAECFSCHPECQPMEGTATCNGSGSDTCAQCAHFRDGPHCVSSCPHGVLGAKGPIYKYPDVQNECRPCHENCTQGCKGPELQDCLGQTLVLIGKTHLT

Consider “AFDCLGQCGRCDFHKLQCVYQSWDHYQYCNSSCTR (also: bicyclic or more (positions not given here)) [PCSK9dCRD AVR9 14]”, for which, in the assay on PCSK9ΔCRD (PCSK9dCRD), the S/N was determined as 30.5 and the ELISA worked out at 2.41.
“AFDCLGQCGRCDFHKLQCVYRSWAHFQYCNSSCTR (also: bicyclic or more (positions not given here)) [PCSK9dCRD AVR9 11]”: in the assay with PCSK9ΔCRD (PCSK9dCRD), the S/N amounted to 18.5 and the ELISA worked out at 2.52.
On the same counts, the results for “AFDCLGQCGRCDFHKLQCVYSSWAHYQYCNSSCTR (also: bicyclic or more (positions not given here)) [PCSK9dCRD AVR9 57]” are 33.9 and 2.57.
In the same order, the values of “AFDCLGQCGRCDFHKLQCVYTSWESYQYCNSSCTR (also: bicyclic or more (positions not given here)) [PCSK9dCRD AVR9 16]” are 19.6 and 1.80.
Consider “AFDCLGQCGRCDFHKLQCVYTSWQHYQYCNSSCTR (also: bicyclic or more (positions not given here)) [PCSK9dCRD AVR9 58]”, for which, in the assay on PCSK9ΔCRD (PCSK9dCRD), the S/N is reported as 35.3 and the ELISA came out at 2.67.
As for “AFDCLGQCVPYVLSPYCNSSCTR [Her3-Fc AVR9 6]”, at Her3-Fc, the S/N turned out to be 24.2 and the ELISA was 1.56.
For the sequence “GCAESQHWWLWGCKQDSDCLAGCVCGPNGFCG (also: bicyclic or more (positions not given here)) [HGFA EET I-II 31]”, in the assay with HGFA, the S/N is on record as 22.4 and the ELISA is 1.95.
Take “GCALSIHWWLWPCKQDSDCLAGCVCGPNGFCG (also: bicyclic or more (positions not given here)) [HGFA EET I-II 20]”: in the assay with HGFA, the S/N was found to be 13.5 and the ELISA is listed as 1.93.
Consider “GCDEYWYECKQDSDCLAGCVCLIWGHCG (disulfide (positions not given here)) [CD28-Fc EET I-II 7]”, for which, in the assay with CD28-Fc, the ELISA turned out to be 1.32 and the S/N was found to be 20.3.
As to “GCDLDLDWIWHECKQDSDCLAGCVCHQGNFCG (also: bicyclic or more (positions not given here)) [Her3-Fc EET I-II 9]”, on Her3-Fc, the S/N is 25.7 and the ELISA worked out at 1.44.
On to “GCEWDWWFDQWICKQDSDCLAGCVCGPNGFCG (also: bicyclic or more (positions not given here)) [HGFA EET I-II 16]”, for which, in the assay on HGFA, the S/N was 14.5 and the ELISA came to 1.92.
In the assay on CD28-Fc, “GCFENWATCKQDSDCLAGCVCKIWKRCG (disulfide (positions not given here)) [CD28-Fc EET I-II 5]” showed an ELISA of 1.34 and a S/N of 19.6.
On the same counts, the results for “GCFWKRVHLCKQDSDCLAGCVCGWEASCG (disulfide (positions not given here)) [CD28-Fc EET I-II 15]” are 1.64 and 31.6.
Consider “GCHPDPWWCKQDSDCLARWCG [Her3-Fc EET I-II 37]”, for which, at Her3-Fc, the S/N came to 43.4 and the ELISA is listed as 3.17.
In the assay on CD28-Fc, “GCHYNWDQCKQDSDCLAGCVCLIWYRCD (disulfide (positions not given here)) [CD28-Fc EET I-II 12]” returned an ELISA of 1.06 and a S/N of 20.1.
As for “GCISKWFSCKQDSDCLAGCVCLLWQDCG (also: bicyclic or more (positions not given here)) [Her3-Fc EET I-II 67]”, on Her3-Fc, the S/N is 20.1 and the ELISA was determined as 1.54.
In the assay on CD28-Fc, “GCIWGWAACKQDSDCLAGCVCQIWGRCG (disulfide (positions not given here)) [CD28-Fc EET I-II 3]” yielded an ELISA of 1.58 and a S/N of 10.7.
“GCMEHWEYCKQDSDCLAGCVCVIWGRCG (disulfide (positions not given here)) [CD28-Fc EET I-II 13]”: in the assay on CD28-Fc, the ELISA turned out to be 1.52 and the S/N is 27.2.
In the same order, the values of “GCMMYWDECKQDSDCLAGCVCLIWNRCG (disulfide (positions not given here)) [CD28-Fc EET I-II 4]” are 1.85 and 34.2.
As to “GCMNWGTFCKQDSDCLAGCVCALFGVCG (also: bicyclic or more (positions not given here)) [Her3-Fc EET I-II 66]”, on Her3-Fc, the S/N is 27.8 and the ELISA is on record as 1.59.
“GCMWDWDACKQDSDCLAGCVCSIWGRCG (disulfide (positions not given here)) [CD28-Fc EET I-II 2]”: in the assay on CD28-Fc, the ELISA is 1.29 and the S/N was 10.9.
Turning to “GCMYHWEACKQDSDCLAGCICHIWIPCG (disulfide (positions not given here)) [CD28-Fc EET I-II 8]”, in the assay with CD28-Fc, the ELISA was 1.07 and the S/N turned out to be 16.4.
For “GCPRILIRCKQDSDCLAGCVCSGPPPCG (also: bicyclic or more (positions not given here)) [Her3-Fc EET I-II 47]”, on Her3-Fc, the S/N stood at 22.4 and the ELISA is given as 1.64.
With “GCPRILMRCKQDSDCLAGCVCAGPPPCG (also: bicyclic or more (positions not given here)) [Her3-Fc EET I-II 42]”, on Her3-Fc, the S/N was 23.8 and the ELISA came to 1.52.
In the same order, the values of “GCPRILMRCKQDSDCLAGCVCSGPPPCG (also: bicyclic or more (positions not given here)) [Her3-Fc EET I-II 7]” are 24.5 and 1.60.
In the same order, the values of “GCPRILMRCKQDSDCLSGCVCSGPPPCG (also: bicyclic or more (positions not given here)) [Her3-Fc EET I-II 24]” are 16.6 and 1.61.
For the sequence “GCQLHYSQQGCKQYSULSGLVLWYTIHRLLRWRI [Her3-Fc EET I-II 4]”, on Her3-Fc, the S/N is 21.1 and the ELISA is 1.45.
With “GCQSHYSHQGCKQDSDCLAGYCG [Her3-Fc EET I-II 11]”, on Her3-Fc, the S/N is recorded as 26.1 and the ELISA is given as 1.65.
Turning to “GCQWDWWMEEWWCKQDSDCLAGCVCGPNGFCG (also: bicyclic or more (positions not given here)) [HGFA EET I-II 14]”, in the assay with HGFA, the S/N is reported as 15.2 and the ELISA is on record as 1.75.
In the same order, the values of “GCQWIAHWWLWDCKQDSDCLAGCVCGPNGFCG (also: bicyclic or more (positions not given here)) [HGFA EET I-II 86]” are 22.6 and 1.92.
With “GCTQDWKTCKQDSDCLAGCVCVIWGRCG (disulfide (positions not given here)) [CD28-Fc EET I-II 6]”, in the assay on CD28-Fc, the ELISA is given as 1.44 and the S/N came to 21.2.
In the assay on CD28-Fc, “GCVWNWVECKQDSDCLAGCVCYIWGRCG (disulfide (positions not given here)) [CD28-Fc EET I-II 1]” had an ELISA of 1.59 and a S/N of 15.4.
In the assay with CD28-Fc, “GCWEKRKMCKQDSDCLAGCVCGWEISCG (disulfide (positions not given here)) [CD28-Fc EET I-II 14]” had an ELISA of 1.35 and a S/N of 22.9.
Take “GCWSSEKGLACKQDSDCLAGCVCDQTGSCG (also: bicyclic or more (positions not given here)) [Her3-Fc EET I-II 52]”: on Her3-Fc, the S/N is 23.0 and the ELISA amounted to 1.65.
Consider “GCYLKRRHCKQDSDCLAGCVCGWEHTCG (disulfide (positions not given here)) [CD28-Fc EET I-II 9]”, for which, in the assay on CD28-Fc, the ELISA was determined as 1.52 and the S/N worked out at 23.4.
In the assay on CD28-Fc, “GCYQKRVQCKQDSDCLAGCVCGWEAQCG (disulfide (positions not given here)) [CD28-Fc EET I-II 10]” gave an ELISA of 1.41 and a S/N of 15.0.
In the assay with CD28-Fc, “GCYTFWHKCKQDSDCLAGCVCLIWGRCG (disulfide (positions not given here)) [CD28-Fc EET I-II 11]” displayed an ELISA of 1.50 and a S/N of 19.0.
Turning to “GCYWDSWFDEWVCKQDSDCLAGCVCGPNGFCG (also: bicyclic or more (positions not given here)) [HGFA EET I-II 59]”, in the assay on HGFA, the S/N is 13.4 and the ELISA was 1.67.
Turning to “GCYWKRQFKCKQDSYCLPGCVCGWEMSCG (disulfide (positions not given here)) [CD28-Fc EET I-II 16]”, in the assay with CD28-Fc, the ELISA is listed as 1.80 and the S/N amounted to 8.4.
“GPSHSQYCHCGGIGYVGGHYCSCTNYQDEWGFESRCLPGAS [HGFA CBD 9]”: in the assay on HGFA, the S/N is 25.0 and the ELISA is 1.80.
For “GPTQSVGGNCGGIGYSGPTVCASGTTCQVLSPNFSICLPGAS (also: bicyclic or more (positions not given here)) [PCSK9dCRD CBD 49]”, in the assay on PCSK9ΔCRD (PCSK9dCRD), the S/N came to 37.1 and the ELISA was 2.38.
On the same counts, the results for “GPTQSVGGVCGGIGYSGPTVCASGTTCQVLSPKTSICLPGAS (also: bicyclic or more (positions not given here)) [PCSK9dCRD CBD 40]” are 27.5 and 2.39.
“GPTQSWQGRCGGIGYSGPTVCASGTTCQVLTPYWSECLPGAS (disulfide 10-27, 21-37 (inferred)) [Her3-Fc_CBD1]”: the S/N on Her3-Fc worked out at 20.2. Further, the ELISA on Her3-Fc (listed as Her3-Fc CBD 3) is recorded as 1.65.
